Results published in ChEMBL document CHEMBL1201862, “PubChem BioAssay data set” (2004).
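Each compound was tested at five concentrations against cells in 96-well plates for 48 hours. GI50 = concentration required for 50% inhibition of growth.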 Calls of active or inactive are those of the source. Cut-off read from the data, not from the text of the source: active = GI50 up to about 1.1 µM and inactive = higher.

Key:
Experiment in all cases: NCI-60 cell line screen, 48 h
NCI/ADR-RES = tested on: NCI/ADR-RES
DU-145 = tested on: DU-145
OVCAR-5 = tested on: OVCAR-5
SF-295 = tested on: SF-295
SR = tested on: SR
MCF7 = tested on: MCF7
A498 = tested on: A498
OVCAR-8 = tested on: OVCAR-8
HOP-92 = tested on: HOP-92
U-251 = tested on: U-251
Malme-3M = tested on: Malme-3M
Hs-578T = tested on: Hs-578T
SW-620 = tested on: SW-620
MDA-N = tested on: MDA-N
MDA-MB-435 = tested on: MDA-MB-435
SK-MEL-2 = tested on: SK-MEL-2
K562 = tested on: K562
786-0 = tested on: 786-0
UACC-62 = tested on: UACC-62
ACHN = tested on: ACHN
NCI-H522 = tested on: NCI-H522
SNB-19 = tested on: SNB-19
SN12C = tested on: SN12C
KM12 = tested on: KM12
HOP-62 = tested on: HOP-62
HCC 2998 = tested on: HCC 2998
M14 = tested on: M14
BT-549 = tested on: BT-549
SF-268 = tested on: SF-268
SK-MEL-5 = tested on: SK-MEL-5
RPMI-8226 = tested on: RPMI-8226
EKVX = tested on: EKVX
NCI-H460 = tested on: NCI-H460
A549 = tested on: A549
COLO 205 = tested on: COLO 205
LOX IMVI = tested on: LOX IMVI
UACC-257 = tested on: UACC-257
MOLT-4 = tested on: MOLT-4
IGROV-1 = tested on: IGROV-1
HCT-15 = tested on: HCT-15
TK-10 = tested on: TK-10
UO-31 = tested on: UO-31
NCI-H23 = tested on: NCI-H23
CCRF-CEM = tested on: CCRF-CEM
CAKI-1 = tested on: CAKI-1
SNB-75 = tested on: SNB-75
HT-29 = tested on: HT-29
HL-60 = tested on: HL-60
T47D = tested on: T47D
SK-MEL-28 = tested on: SK-MEL-28
OVCAR-4 = tested on: OVCAR-4
PC-3 = tested on: PC-3
OVCAR-3 = tested on: OVCAR-3
MDA-MB-231 = tested on: MDA-MB-231
SK-OV-3 = tested on: SK-OV-3
NCI-H226 = tested on: NCI-H226
HCT-116 = tested on: HCT-116
SF-539 = tested on: SF-539
RXF 393 = tested on: RXF 393

Q: Which results are given for `O=C1CSC(/C=C/c2ccccc2)N1c1ccc(-c2ccc(-n3c(-c4ccccc4)nc4ccccc4c3=O)cc2)cc1` (configuration not stated)?
A: GI50 (NCI/ADR-RES): 21.1 µM (inactive); GI50 (DU-145): 24.7 µM (inactive); GI50 (OVCAR-5): 6.04 µM (inactive); GI50 (SF-295): 20.1 µM (inactive); GI50 (SR): 28.3 µM (inactive); GI50 (MCF7): 22.6 µM (inactive); GI50 (A498): 42.2 µM (inactive); GI50 (OVCAR-8): 25.1 µM (inactive); GI50 (HOP-92): 18 µM (inactive); GI50 (U-251): 21.5 µM (inactive); GI50 (Malme-3M): 23.1 µM (inactive); GI50 (Hs-578T): > 10 µM (inactive); GI50 (SW-620): 19.4 µM (inactive); GI50 (MDA-N): 23.4 µM (inactive); GI50 (MDA-MB-435): 19.4 µM (inactive); GI50 (SK-MEL-2): 19.1 µM (inactive); GI50 (K562): 25.9 µM (inactive); GI50 (786-0): 13.4 µM (inactive); GI50 (UACC-62): 24.3 µM (inactive); GI50 (ACHN): 23.6 µM (inactive); GI50 (NCI-H522): 17.8 µM (inactive); GI50 (SNB-19): 21.8 µM (inactive); GI50 (SN12C): 27.4 µM (inactive); GI50 (KM12): 17.3 µM (inactive); GI50 (HOP-62): 28.5 µM (inactive); GI50 (HCC 2998): 66.2 µM (inactive); GI50 (M14): 16.9 µM (inactive); GI50 (BT-549): 17.2 µM (inactive); GI50 (SF-268): 35.6 µM (inactive); GI50 (SK-MEL-5): 13.8 µM (inactive); GI50 (RPMI-8226): 27.9 µM (inactive); GI50 (EKVX): 15.5 µM (inactive); GI50 (NCI-H460): 30.7 µM (inactive); GI50 (A549): 24 µM (inactive); GI50 (COLO 205): 18.2 µM (inactive); GI50 (LOX IMVI): 15.8 µM (inactive); GI50 (UACC-257): 30.3 µM (inactive); GI50 (MOLT-4): 15.7 µM (inactive); GI50 (IGROV-1): 20.1 µM (inactive); GI50 (HCT-15): 20.7 µM; GI50 (TK-10): 39.5 µM (inactive); GI50 (UO-31): 14.2 µM (inactive); GI50 (NCI-H23): 35.6 µM (inactive); GI50 (CCRF-CEM): 20.3 µM (inactive); GI50 (CAKI-1): 33.7 µM (inactive); GI50 (SNB-75): 0.562 µM (active); GI50 (HT-29): 14.5 µM (inactive); GI50 (HL-60): 28.8 µM (inactive); GI50 (T47D): 15.2 µM (inactive); GI50 (SK-MEL-28): 18.8 µM (inactive); GI50 (OVCAR-4): 15.8 µM (inactive); GI50 (PC-3): 22.2 µM (inactive); GI50 (OVCAR-3): 21.2 µM (inactive); GI50 (MDA-MB-231): 25.1 µM (inactive); GI50 (SK-OV-3): 51.8 µM (inactive)

Q: For `NC1(P(=O)(O)O)CCCCC1`, which GI50 (NCI/ADR-RES) is on record?
A: > 100 µM (inactive)

Q: What about the GI50 (DU-145) of the same compound?
A: > 100 µM (inactive)

Q: And the GI50 (OVCAR-5)?
A: > 100 µM (inactive)

Q: And the GI50 (SF-295)?
A: > 100 µM (inactive)

Q: And the GI50 (SR)?
A: > 100 µM (inactive)

Q: And the GI50 (MCF7)?
A: > 100 µM (inactive)

Q: And the GI50 (A498)?
A: > 100 µM (inactive)

Q: What about the GI50 (OVCAR-8) of the same compound?
A: > 100 µM (inactive)

Q: What about the GI50 (HOP-92) of the same compound?
A: > 100 µM (inactive)

Q: And the GI50 (NCI-H226)?
A: > 100 µM (inactive)

Q: What about the GI50 (U-251) of the same compound?
A: > 100 µM (inactive)

Q: And the GI50 (Malme-3M)?
A: > 100 µM (inactive)

Q: And the GI50 (Hs-578T)?
A: > 100 µM (inactive)

Q: What about the GI50 (SW-620) of the same compound?
A: > 100 µM (inactive)

Q: And the GI50 (MDA-N)?
A: > 100 µM (inactive)

Q: And the GI50 (MDA-MB-435)?
A: > 100 µM (inactive)

Q: What about the GI50 (SK-MEL-2) of the same compound?
A: > 100 µM (inactive)

Q: What about the GI50 (K562) of the same compound?
A: > 100 µM (inactive)

Q: And the GI50 (786-0)?
A: > 100 µM (inactive)

Q: What about the GI50 (UACC-62) of the same compound?
A: > 100 µM (inactive)

Q: And the GI50 (ACHN)?
A: > 100 µM (inactive)

Q: And the GI50 (NCI-H522)?
A: > 100 µM (inactive)

Q: What about the GI50 (SNB-19) of the same compound?
A: > 100 µM (inactive)

Q: And the GI50 (SN12C)?
A: > 100 µM (inactive)

Q: And the GI50 (HCT-116)?
A: > 100 µM (inactive)

Q: What about the GI50 (SF-539) of the same compound?
A: > 100 µM (inactive)

Q: What about the GI50 (KM12) of the same compound?
A: > 100 µM (inactive)

Q: What about the GI50 (HOP-62) of the same compound?
A: > 100 µM (inactive)

Q: What about the GI50 (M14) of the same compound?
A: > 100 µM (inactive)

Q: What about the GI50 (BT-549) of the same compound?
A: > 100 µM (inactive)

Q: What about the GI50 (SF-268) of the same compound?
A: > 100 µM (inactive)

Q: What about the GI50 (SK-MEL-5) of the same compound?
A: > 100 µM (inactive)

Q: And the GI50 (RPMI-8226)?
A: > 100 µM (inactive)

Q: And the GI50 (EKVX)?
A: > 100 µM (inactive)

Q: What about the GI50 (NCI-H460) of the same compound?
A: > 100 µM (inactive)

Q: What about the GI50 (A549) of the same compound?
A: > 100 µM (inactive)

Q: And the GI50 (COLO 205)?
A: > 100 µM (inactive)

Q: And the GI50 (LOX IMVI)?
A: > 100 µM (inactive)

Q: What about the GI50 (UACC-257) of the same compound?
A: > 100 µM (inactive)

Q: And the GI50 (MOLT-4)?
A: > 100 µM (inactive)

Q: And the GI50 (IGROV-1)?
A: > 100 µM (inactive)

Q: And the GI50 (HCT-15)?
A: > 100 µM

Q: What about the GI50 (TK-10) of the same compound?
A: > 100 µM (inactive)

Q: What about the GI50 (NCI-H23) of the same compound?
A: > 100 µM (inactive)

Q: And the GI50 (CCRF-CEM)?
A: > 100 µM (inactive)

Q: What about the GI50 (CAKI-1) of the same compound?
A: > 100 µM (inactive)

Q: What about the GI50 (SNB-75) of the same compound?
A: > 100 µM (inactive)

Q: What about the GI50 (HT-29) of the same compound?
A: > 100 µM (inactive)

Q: What about the GI50 (HL-60) of the same compound?
A: < 0.01 µM (active)

Q: And the GI50 (T47D)?
A: > 100 µM (inactive)

Q: And the GI50 (SK-MEL-28)?
A: > 100 µM (inactive)

Q: And the GI50 (RXF 393)?
A: > 100 µM (inactive)

Q: And the GI50 (OVCAR-4)?
A: > 100 µM (inactive)

Q: What about the GI50 (PC-3) of the same compound?
A: > 100 µM (inactive)

Q: What about the GI50 (OVCAR-3) of the same compound?
A: > 100 µM (inactive)

Q: What about the GI50 (MDA-MB-231) of the same compound?
A: > 100 µM (inactive)

Q: What about the GI50 (SK-OV-3) of the same compound?
A: > 100 µM (inactive)
